Entries after “also recorded” stand apart in the source; their conditions may differ. Non-standard residues stand in square brackets, D forms with d. No end group written: not given here. hSer = N[C@@H](CCO)C(=O)O
The substances below were run on Staphylococccus aureus (assay: agar diffusion assay (zone of inhibition)). Conditions: S. aureus.
Type: cell-based
Method: (§1) The antimicrobial activity of the indolicidin analogs was determined using microbicidal or microbial inhibition assays. The indolicidin analogs initially were characterized using a microbial inhibition method, including a modified plate diffusion assay (Hultmark et al., EMBO J. 2:571-573 (1983); Lehrer et al., J. Immunol. Meth. 137:167-173 (1991), each of which is incorporated herein by reference).
(§2) Nutrient-containing agar (or agarose) plates were seeded with a selected target microorganism and peptide samples (5-10 μl) were placed into small wells formed in the solid medium. Following an initial incubation interval of 1 to 4 hr, the well-containing layer was overlayed with enriched (2× normal) solid medium in order to support microbial growth outside the perimeter of inhibition. After overnight incubation at 30° C. to 37° C., the antimicrobial activity was quantitated by measuring the clear zones around each well (zone of inhibition).
“[H2N-]Ile-Leu-Pro-Trp-Lys-Trp-Pro-Trp-Trp-Pro-Trp-Arg-Arg-Hse (ILPWKWPWWPWRRX; C-terminal homoserine; MOD_RES (14) Xaa is homoserine (Hse).) [Indol(1-13)-Hse]” was tested, and the “antimicrobial activity (growth inhibition, zone of inhibition)” value was “antimicrobial activity equivalent to that of synthesized Indol 1-13”.

The substances below were run on microorganisms (assay: antimicrobial activity, microbicidal or microbial inhibition assays (overall statements)). Conditions: overall statement, microorganism not specified.
Type: cell-based
Method: as §1, §2
Microbicidal activity was measured by first incubating the target organism with an indolicidin analog in an aqueous suspension, then plating the suspension to quantitate surviving microorganisms. Cultures were grown to mid log phase in an appropriate medium, harvested, washed, and resuspended to 1-2×10^7 colony forming units (CFU) per ml. To conserve peptide, the incubation volume usually was 0.05 ml, with the final cell concentration being 1-2×10^6CFU/ml. Peptide stock solutions, usually made up in 0.01% acetic acid, were diluted in the incubation buffer to a final concentration of 1 μg/ml to 100 μg/ml, and the incubation was initiated by addition of an appropriate volume of the bacterial or fungal stock suspension to the prewarmed (37° C.) peptide-buffer mixture. At timed intervals, 50 μl or 100 μl samples were removed and diluted serially, then plated on nutrient-containing agar plates. Killing activity was quantitated by determining the reduction in CFU relative to appropriate control incubations.
For “Indol 1-13/F-Hse: Indol 1-13/F peptide with a carboxy terminal homoserine, produced by cyanogen bromide cleavage (ILPFKFPFFPFRR[hSer])”, the antimicrobial activity was “have antimicrobial activity”. “Leu-Pro-Phe-Lys-Phe-Pro-Phe-Phe-Pro-Phe-Arg-Arg-NH2 (LPFKFPFFPFRR-NH2) [Indol 2-13/F]” was tested, and the antimicrobial activity was “exhibits antimicrobial activity”. “Leu-Pro-Trp-Lys-Trp-Pro-Trp-Trp-Pro-Trp-Arg-Arg-NH2 (LPWKWPWWPWRR-NH2) [Indol 2-13]” was tested, and the antimicrobial activity was “broad spectrum antimicrobial activity; also recorded: exhibits antimicrobial activity”. For “Lys-Trp-Pro-Trp-Trp-Pro-Trp-Arg-Arg-NH2 (KWPWWPWRR-NH2) [Indol 5-13]”, the antimicrobial activity was “broad spectrum antimicrobial activity; also recorded: exhibits antimicrobial activity”. “Pro-Trp-Lys-Trp-Pro-Trp-Trp-Pro-Trp-Arg-Arg-NH2 (PWKWPWWPWRR-NH2) [Indol 3-13]” was tested, and the antimicrobial activity was “broad spectrum antimicrobial activity; also recorded: exhibits antimicrobial activity”. With “Trp-Lys-Trp-Pro-Trp-Trp-Pro-Trp-Arg-Arg-NH2 (WKWPWWPWRR-NH2) [Indol 4-13]” the antimicrobial activity was “broad spectrum antimicrobial activity; also recorded: exhibits antimicrobial activity”. In the case of “[H2N-]Ile-Leu-Pro-Trp-Lys-Trp-Pro-Trp-Trp-Pro-Trp-Arg-Arg-Hse (ILPWKWPWWPWRRX; C-terminal homoserine; MOD_RES (14) Xaa is homoserine (Hse).) [Indol(1-13)-Hse]”, the antimicrobial activity is reported as “have antimicrobial activity”.

Each substance was assayed on fungi such as Cryptococcus (assay: antimicrobial activity against fungi). Conditions: not given.
Type: cell-based
For “Lys-Trp-Pro-Trp-Trp-Pro-Trp-Arg-NH2 (KWPWWPWR-NH2) [Indol 5-12]”, the “antimicrobial activity against fungi such as Cryptococcus” value was “substantial antimicrobial activity”. With “Pro-Trp-Lys-Trp-Pro-Trp-Trp-Pro-Trp-Arg-NH2 (PWKWPWWPWR-NH2) [Indol 3-12]” the “antimicrobial activity against fungi such as Cryptococcus” value was “substantial antimicrobial activity”. For “Trp-Lys-Trp-Pro-Trp-Trp-Pro-Trp-Arg-NH2 (WKWPWWPWR-NH2) [Indol 4-12]”, the “antimicrobial activity against fungi such as Cryptococcus” value was “substantial antimicrobial activity”. With “Trp-Pro-Trp-Trp-Pro-Trp-Arg-NH2 (WPWWPWR-NH2) [Indol 6-12]” the “antimicrobial activity against fungi such as Cryptococcus” value was “substantial antimicrobial activity”.

From patent publication US6524585B1, “Indolicidin analogs and methods of using same” (The Regents of the University of California, priority 1998, dated 2003)
